Reference: patent publication US20240368113A1, “AMIDE COMPOUND AND USE THEREOF” (Chengdu Fendi Pharmaceutical Co. Ltd., priority 2021, published 2024)

test system: MV-4-11 cells; assay: Inhibition of tumor cell proliferation (CellTiter-Glo); format: cell-based; settings: Homo sapiens, MV4-11, 72 h, read-out: IC50 of inhibitory activity of tumor cell proliferation
Description: MV-4-11 cells were diluted with medium (RPM1640+10% FBS+1% PS) and plated at 4000 cells/well in a white-walled clear-bottom 96-well plate. MV-4-11 cells were plated and incubated in a 5% CO2, 37° C. incubator for 2 hours. Cells were treated with the indicated concentration of compound or DMSO (control), and placed in a 5% CO2, 37° C. incubator for 72 h after dosing. After the end of the culture, equilibrate at room temperature for 30 min, add 100 μl of CellTiter-Glo® Reagent to each well, and shake the microplate shaker for 2 min. After 10 min of incubation at room temperature, the luminescence was measured by a microplate reader, and the cell-free wells were used as the background wells. CC-90009 (celegen patent phase I) was used as a control, and its structural formula was as follows: 0

| SMILES | IC50 |
| --- | --- |
| O=C(C#Cc1ccc(OC(=O)N2CCC(N3CCCCC3)CC2)cc1)NCc1ccc2c(c1)CN(C1CCC(=O)NC1=O)C2=O (stereo not drawn) [Compound 72] | > 100 nM |
| O=C(C#Cc1ccccc1OC(=O)N1CCC(N2CCCCC2)CC1)NCc1ccc2c(c1)CN(C1CCC(=O)NC1=O)C2=O (stereo not drawn) [Compound 74] | > 100 nM |

same assay, conditions: Homo sapiens, MV4-11; MV-4-11 cells, 72 h, CellTiter-Glo; read-out: IC50 of inhibitory activity of tumor cell proliferation

| SMILES | IC50 |
| --- | --- |
| O=C(C#Cc1ccc(CC(F)F)cc1)NCc1ccc2c(c1)CN(C1CCC(=O)NC1=O)C2=O (stereo not drawn) [Compound 2] | < 1 nM |
| O=C(C#Cc1ccc(F)cc1)NCc1ccc2c(c1)CN(C1CCC(=O)NC1=O)C2=O (stereo not drawn) [Compound 3] | < 1 nM |
| O=C(C#Cc1ccc(Cl)cc1F)NCc1ccc2c(c1)CN(C1CCC(=O)NC1=O)C2=O (stereo not drawn) [Compound 4] | < 1 nM |
| O=C(C#Cc1cccs1)NCc1ccc2c(c1)CN(C1CCC(=O)NC1=O)C2=O (stereo not drawn) [Compound 6] | < 1 nM |
| O=C(C#Cc1ccc(Cl)cc1)NCc1ccc2c(c1)CN(C1CCC(=O)NC1=O)C2=O (stereo not drawn) [Compound 7] | < 1 nM |
| O=C(C#Cc1ccccc1Cl)NCc1ccc2c(c1)CN(C1CCC(=O)NC1=O)C2=O (stereo not drawn) [Compound 8] | < 1 nM |
| O=C(C#Cc1c(F)cccc1F)NCc1ccc2c(c1)CN(C1CCC(=O)NC1=O)C2=O (stereo not drawn) [Compound 9] | < 1 nM |
| O=C(C#Cc1ccc(F)cc1F)NCc1ccc2c(c1)CN(C1CCC(=O)NC1=O)C2=O (stereo not drawn) [Compound 10] | < 1 nM |
| O=C(C#Cc1ccccc1)NCc1ccc2c(c1)CN(C1CCC(=O)NC1=O)C2=O (stereo not drawn) [Compound 11] | < 1 nM |
| Cc1cc(F)c(C#CC(=O)NCc2ccc3c(c2)CN(C2CCC(=O)NC2=O)C3=O)c(F)c1 (stereo not drawn) [Compound 13] | < 1 nM |
| O=C1CCC(N2Cc3cc(CNC(=O)/C(F)=C/c4cccc(F)c4)ccc3C2=O)C(=O)N1 (stereo not drawn) [Compound 14] | > 100 nM |
| O=C(/C=C/c1ccccc1)NCc1ccc2c(c1)CN(C1CCC(=O)NC1=O)C2=O (stereo not drawn) [Compound 15] | 1 to 10 nM |
| O=C(C#Cc1cccnc1)NCc1ccc2c(c1)CN(C1CCC(=O)NC1=O)C2=O (stereo not drawn) [Compound 16] | 10 to 100 nM |
| O=C(C#Cc1cccc(Br)c1)NCc1ccc2c(c1)CN(C1CCC(=O)NC1=O)C2=O (stereo not drawn) [Compound 18] | < 1 nM |
| O=C(C#Cc1cccc(O)c1)NCc1ccc2c(c1)CN(C1CCC(=O)NC1=O)C2=O (stereo not drawn) [Compound 19] | 1 to 10 nM |
| C[Si](C)(C)C#CC(=O)NCc1ccc2c(c1)CN(C1CCC(=O)NC1=O)C2=O (stereo not drawn) [Compound 20] | > 100 nM |
| CC(C)(C)[Si](C)(C)OCC#CC(=O)NCc1ccc2c(c1)CN(C1CCC(=O)NC1=O)C2=O (stereo not drawn) [Compound 21] | < 1 nM |
| O=C(C#CCO)NCc1ccc2c(c1)CN(C1CCC(=O)NC1=O)C2=O (stereo not drawn) [Compound 22] | > 100 nM |
| O=C(C#Cc1ccncc1)NCc1ccc2c(c1)CN(C1CCC(=O)NC1=O)C2=O (stereo not drawn) [Compound 23] | > 100 nM |
| O=C(C#Cc1ccc2c(c1)OCO2)NCc1ccc2c(c1)CN(C1CCC(=O)NC1=O)C2=O (stereo not drawn) [Compound 24] | < 1 nM |
| CC(C)(C)OC(=O)c1ccc(C#CC(=O)NCc2ccc3c(c2)CN(C2CCC(=O)NC2=O)C3=O)cc1 (stereo not drawn) [Compound 25] | < 1 nM |
| O=C(C#Cc1ccc(C(=O)O)cc1)NCc1ccc2c(c1)CN(C1CCC(=O)NC1=O)C2=O (stereo not drawn) [Compound 26] | > 100 nM |
| O=C(C#Cc1ccc(Cl)cn1)NCc1ccc2c(c1)CN(C1CCC(=O)NC1=O)C2=O (stereo not drawn) [Compound 27] | 1 to 10 nM |
| Cc1ccc(C#CC(=O)NCc2ccc3c(c2)CN(C2CCC(=O)NC2=O)C3=O)nc1 (stereo not drawn) [Compound 28] | 1 to 10 nM |

| SMILES | IC50 |
| --- | --- |
| CCOC(=O)c1ccc(C#CC(=O)NCc2ccc3c(c2)CN(C2CCC(=O)NC2=O)C3=O)nc1 (stereo not drawn) [Compound 29] | > 100 nM |
| COc1ccc(C#CC(=O)NCc2ccc3c(c2)CN(C2CCC(=O)NC2=O)C3=O)nc1 (stereo not drawn) [Compound 30] | 1 to 10 nM |
| Cc1ccc(C#CC(=O)NCc2ccc3c(c2)CN(C2CCC(=O)NC2=O)C3=O)cn1 (stereo not drawn) [Compound 31] | 10 to 100 nM |
| CC(=O)Oc1ccc(C#CC(=O)NCc2ccc3c(c2)CN(C2CCC(=O)NC2=O)C3=O)cc1 (stereo not drawn) [Compound 32] | 1 to 10 nM |
| Cn1cnc(C#CC(=O)NCc2ccc3c(c2)CN(C2CCC(=O)NC2=O)C3=O)c1 (stereo not drawn) [Compound 33] | > 100 nM |
| O=C(C#Cc1ccc(C(F)(F)F)cn1)NCc1ccc2c(c1)CN(C1CCC(=O)NC1=O)C2=O (stereo not drawn) [Compound 34] | 10 to 100 nM |
| Cn1ccc(C#CC(=O)NCc2ccc3c(c2)CN(C2CCC(=O)NC2=O)C3=O)n1 (stereo not drawn) [Compound 35] | 10 to 100 nM |
| Cc1ccc(C#CC(=O)NCc2ccc3c(c2)CN(C2CCC(=O)NC2=O)C3=O)s1 (stereo not drawn) [Compound 36] | < 1 nM |
| O=C(C#Cc1cnccn1)NCc1ccc2c(c1)CN(C1CCC(=O)NC1=O)C2=O (stereo not drawn) [Compound 37] | > 100 nM |
| O=C(C#Cc1ccc(F)nc1)NCc1ccc2c(c1)CN(C1CCC(=O)NC1=O)C2=O (stereo not drawn) [Compound 38] | 1 to 10 nM |
| O=C(C#Cc1cnc(Cl)cc1Cl)NCc1ccc2c(c1)CN(C1CCC(=O)NC1=O)C2=O (stereo not drawn) [Compound 39] | 1 to 10 nM |
| O=C(C#Cc1cccc(Cl)n1)NCc1ccc2c(c1)CN(C1CCC(=O)NC1=O)C2=O (stereo not drawn) [Compound 40] | 1 to 10 nM |
| O=C(C#Cc1ccc(F)nc1F)NCc1ccc2c(c1)CN(C1CCC(=O)NC1=O)C2=O (stereo not drawn) [Compound 41] | 1 to 10 nM |
| N#Cc1ccc(C#CC(=O)NCc2ccc3c(c2)CN(C2CCC(=O)NC2=O)C3=O)cn1 (stereo not drawn) [Compound 42] | > 100 nM |
| N#Cc1ncccc1C#CC(=O)NCc1ccc2c(c1)CN(C1CCC(=O)NC1=O)C2=O (stereo not drawn) [Compound 43] | > 100 nM |
| Cn1nccc1C#CC(=O)NCc1ccc2c(c1)CN(C1CCC(=O)NC1=O)C2=O (stereo not drawn) [Compound 44] | > 100 nM |
| O=C(C#Cc1ccc2nccn2c1)NCc1ccc2c(c1)CN(C1CCC(=O)NC1=O)C2=O (stereo not drawn) [Compound 45] | > 100 nM |
| COc1cccc(C#CC(=O)NCc2ccc3c(c2)CN(C2CCC(=O)NC2=O)C3=O)c1 (stereo not drawn) [Compound 46] | < 1 nM |
| O=C(C#Cc1ccc([N+](=O)[O-])cc1F)NCc1ccc2c(c1)CN(C1CCC(=O)NC1=O)C2=O (stereo not drawn) [Compound 47] | > 100 nM |
| Nc1ccc(C#CC(=O)NCc2ccc3c(c2)CN(C2CCC(=O)NC2=O)C3=O)c(F)c1 (stereo not drawn) [Compound 48] | 1 to 10 nM |
| O=C(C#Cc1ccc(F)cc1[N+](=O)[O-])NCc1ccc2c(c1)CN(C1CCC(=O)NC1=O)C2=O (stereo not drawn) [Compound 49] | 1 to 10 nM |
| Nc1cc(F)ccc1C#CC(=O)NCc1ccc2c(c1)CN(C1CCC(=O)NC1=O)C2=O (stereo not drawn) [Compound 50] | 1 to 10 nM |
| Cc1ccc(C#CC(=O)NCc2ccc3c(c2)CN(C2CCC(=O)NC2=O)C3=O)cc1[N+](=O)[O-] (stereo not drawn) [Compound 51] | < 1 nM |
| Cc1ccc(C#CC(=O)NCc2ccc3c(c2)CN(C2CCC(=O)NC2=O)C3=O)cc1N (stereo not drawn) [Compound 52] | < 1 nM |

| SMILES | IC50 |
| --- | --- |
| O=C(C#Cc1ccc(F)c([N+](=O)[O-])c1)NCc1ccc2c(c1)CN(C1CCC(=O)NC1=O)C2=O (stereo not drawn) [Compound 53] | 10 to 100 nM |
| Nc1cc(C#CC(=O)NCc2ccc3c(c2)CN(C2CCC(=O)NC2=O)C3=O)ccc1F (stereo not drawn) [Compound 54] | < 1 nM |
| O=C(C#Cc1ccc(-c2ccc([N+](=O)[O-])cc2)cc1)NCc1ccc2c(c1)CN(C1CCC(=O)NC1=O)C2=O (stereo not drawn) [Compound 55] | < 1 nM |
| Nc1ccc(-c2ccc(C#CC(=O)NCc3ccc4c(c3)CN(C3CCC(=O)NC3=O)C4=O)cc2)cc1 (stereo not drawn) [Compound 56] | < 1 nM |
| O=C(C#Cc1ccc(O)cc1)NCc1ccc2c(c1)CN(C1CCC(=O)NC1=O)C2=O (stereo not drawn) [Compound 57] | 10 to 100 nM |
| O=C(C#Cc1ccccc1O)NCc1ccc2c(c1)CN(C1CCC(=O)NC1=O)C2=O (stereo not drawn) [Compound 58] | 1 to 10 nM |
| O=C(C#Cc1ccc(Cl)nc1)NCc1ccc2c(c1)CN(C1CCC(=O)NC1=O)C2=O (stereo not drawn) [Compound 59] | 10 to 100 nM |
| O=C(C#Cc1ccc(C(F)(F)F)nc1)NCc1ccc2c(c1)CN(C1CCC(=O)NC1=O)C2=O (stereo not drawn) [Compound 60] | 10 to 100 nM |
| O=C(C#CC1CC1)NCc1ccc2c(c1)CN(C1CCC(=O)NC1=O)C2=O (stereo not drawn) [Compound 61] | > 100 nM |
| O=C(C#CC1CCCCC1)NCc1ccc2c(c1)CN(C1CCC(=O)NC1=O)C2=O (stereo not drawn) [Compound 62] | < 1 nM |
| CC(C)(C)OC(=O)N1CCCCC1C#CC(=O)NCc1ccc2c(c1)CN(C1CCC(=O)NC1=O)C2=O (stereo not drawn) [Compound 63] | < 1 nM |
| O=C(C#CC1CCCCN1)NCc1ccc2c(c1)CN(C1CCC(=O)NC1=O)C2=O (stereo not drawn) [Compound 64] | > 100 nM |
| O=C(C#Cc1c(O)cccc1Cl)NCc1ccc2c(c1)CN(C1CCC(=O)NC1=O)C2=O (stereo not drawn) [Compound 65] | 1 to 10 nM |
| O=C(C#Cc1c(Cl)ccnc1Cl)NCc1ccc2c(c1)CN(C1CCC(=O)NC1=O)C2=O (stereo not drawn) [Compound 66] | 1 to 10 nM |
| Cc1ccnc(Cl)c1C#CC(=O)NCc1ccc2c(c1)CN(C1CCC(=O)NC1=O)C2=O (stereo not drawn) [Compound 67] | 1 to 10 nM |
| O=C(C#Cc1c(F)ccnc1F)NCc1ccc2c(c1)CN(C1CCC(=O)NC1=O)C2=O (stereo not drawn) [Compound 68] | 10 to 100 nM |
| CC(C)(C)OC(=O)c1ccccc1C#CC(=O)NCc1ccc2c(c1)CN(C1CCC(=O)NC1=O)C2=O (stereo not drawn) [Compound 69] | < 1 nM |
| CC(C)(C)OC(=O)c1cccc(C#CC(=O)NCc2ccc3c(c2)CN(C2CCC(=O)NC2=O)C3=O)c1 (stereo not drawn) [Compound 70] | < 1 nM |
| CC(C)C(=O)Oc1ccccc1C#CC(=O)NCc1ccc2c(c1)CN(C1CCC(=O)NC1=O)C2=O (stereo not drawn) [Compound 73] | 1 to 10 nM |
| O=C(C#Cc1ccccc1C(=O)O)NCc1ccc2c(c1)CN(C1CCC(=O)NC1=O)C2=O (stereo not drawn) [Compound 75] | > 100 nM |
| O=C(C#Cc1cccc(C(=O)O)c1)NCc1ccc2c(c1)CN(C1CCC(=O)NC1=O)C2=O (stereo not drawn) [Compound 76] | > 100 nM |
| CC(C)(C)C(=O)OCOC(=O)c1ccccc1C#CC(=O)NCc1ccc2c(c1)CN(C1CCC(=O)NC1=O)C2=O (stereo not drawn) [Compound 77] | > 100 nM |
